In patent US11110079B2, “Mebendazole polymorph for treatment and prevention of tumors” (THE JOHNS HOPKINS UNIVERSITY, priority 2015, dated 2021):

Tests used:
[1] = human; cited from earlier work
[2] = mice; cited from earlier work
[3] = tested on: glioma and medulloblastoma cell lines; settings: tissue culture; cited from earlier work
D425 medulloblastoma = experiment: Orthotopic D425 medulloblastoma xenograft model (survival); format: in vivo, mouse; settings: orthotopic D425 medulloblastoma xenograft; MBZ-C 50 mg/kg five days a week, elacridar 50 mg/kg 7 days
Protocol: The intracranial implantation of GL261-luc in the frontal lobe and D425 cells in the cerebellum of the mouse brain followed the procedure described before (3,4). Five days after tumor implantation, mice were gavaged with MBZ or the other benzimidazoles at 50 mg/kg five days a week. MBZ and other benzimidazoles were prepared by either mixing the power with PBS and sesame oil (1:1, v:v) (Sigma) or by grinding the tablets to powder and resuspending in the aforementioned PBS/sesame oil mixture. Elacridar was prepared as a 10 mg/ml suspension in 0.5% hydroxypropylmethylcellulose and 0.5% Tween 80 in PBS similarly as described before (15).

GL261-luc glioma = settings: GL261, single agent 50 mg/kg; control 29.5 days
Protocol: All animal studies were approved by the Animal Care and Use Committee (ACUC) of the Johns Hopkins University. The intracranial implantation of GL261-luc in the frontal lobe and D425 cells in the cerebellum of the mouse brain followed the procedure described before (3,4). […] MBZ and other benzimidazoles were prepared by either mixing the power with PBS and sesame oil (1:1, v:v) (Sigma) or by grinding the tablets to powder and resuspending in the aforementioned PBS/sesame oil mixture. Elacridar was prepared as a 10 mg/ml suspension in 0.5% hydroxypropylmethylcellulose and 0.5% Tween 80 in PBS similarly as described before (15).
Animal survival data were analyzed by GraphPad Prism 5.0. The p-values were determined by a Mantel-Cox test. A p-value under 0.05 was accepted as statistically significant.

SW480 = SW480 colon cancer flank xenograft; format: in vivo, Nude mice
Protocol: (§1) FIGS. 9A-9E. […] Two human colorectal carcinoma cell lines, HT29 and SW480, were implanted subcutaneously into the flanks of Nude mice and treated for four weeks with 50 mg/kg MBZ by oral gavage. Tumor volumes were measured twice weekly, averaged, and plotted over the course of the experiment. HT29 xenograft (FIG. 9A) and SW480 xenograft (B) growth inhibitory curves. Resected flank tumors from each group were weighed at the end of the experiment and compared to untreated control (FIG. 9C, FIG. 9D) Paraffin-embedded flank tumor tissues were stained for Ki67 proliferation marker. […] Five randomly selected fields from each slide were quantified as the percent Ki67-positive cell×100/total number of cells and represent the mean+SEM of five animals. *, P<0.05.

HT29 = HT29 colon cancer flank xenograft; format: in vivo, Nude mice
Protocol: as §1

in vivo = settings: mouse
Protocol: Female C57BL6 mice, 5-6 weeks of age, were purchased from NCl. Animal experimentation was conducted under an approved IACUC protocol and complied with local and national guidelines. All MBZ polymorphs and tablets were administered by oral gavage at a dose of 50 mg/kg. Elacridar was administered by oral gavage at 50 mg/kg 2 hours prior to the administration of MBZ-C. Mice (3 animals/time point) were first anesthetized via intraperitoneal injection of 60 μl of a stock solution containing ketamine hydrochloride (75 mg/kg) (100 mg/ml; Ketamine HCl; Abbot Laboratories, Chicago, Ill., USA) and xylazine (7.5 mg/kg) (100 mg/ml; Xyla-ject®, Phoenix Pharmaceutical, St. Joseph, Mo., USA) in a sterile 0.9% NaCl solution. Then the blood samples were taken by puncturing and aspiring from the left heart ventricle. Blood samples were mixed with 5 mM EDTA and centrifuged at 10000 g for 5 min to obtain the plasma for further analysis.
For brain distribution studies, mice were perfused under anesthesia with 20 ml ice-cold saline supplemented with 20 μl of 0.02% heparin by injecting slowly into the left heart ventricle using a 20 gauge needle. The right atrium was cut open before to allow the blood outflow. The yellow color of kidney indicated a good perfusion quality that was essential to deplete blood from the brain tissue. In GL261 tumor-bearing mice, GL261 tumor was distinguished from the normal brain by easily recognizable differences in color and shade. GL261 tumor was separated with a scalpel and the normal brain tissue was cut from the contralateral hemisphere. All brain samples were weighed and stored at −80° C. before processing.
Blood, brain and brain tumor tissues were harvested as a function of time after MBZ administration. To compare the pharmacokinetics of MBZ polymorphs, three cohorts of mice each were administered a single dose of 50 mg/kg by oral gavage. For the initial comparison studies, plasma samples were obtained at 1, 2.5, 4, 6, 8, 15, and 24 hours after MBZ administration while brain tissue was only collected at 6 hours. For the comparison studies of polymorph C with or without ELD, plasma and brain tissue samples were obtained at 2.5, 4, and 8 hours after MBZ administration. Brain tumor tissue samples were also obtained for polymorph C alone.
MBZ and the two metabolites, 2-amino-5-benzoyl-benzimidazole (MBZ-NH2, CAS 52329-60-9) and rac dihydro mebendazole (MBZ-OH, CAS 60254-95-7), were quantified in plasma, brain and brain tumor tissue. Tissue homogenates were prepared at a concentration of 200 mg/ml in plasma prior to extraction. Mebendazole and metabolites were extracted from 50 μl of plasma or tissue homogenates with 0.1 ml of methanol containing 0.5 μg/ml of the internal standard A620223.69. After centrifugation, the supernatant (60 μl) was mixed with water (40 μl) and then transferred into autosampler vials. […] The analytes were monitored using an AB Sciex triple quadrapole™ 5500 mass-spectrometric detector (Applied Biosystems, Foster City, Calif., USA) using electrospray ionization operating in positive mode. The spectrometer was programmed to allow the [MH+] ions of MBZ, MBZ-NH2, MBZ-OH, and A620223.69 at m/z 296.0, 238.0, 298.0, and 287.2, respectively to pass through the first quadrupole (Q1) and into the collision cell (Q2). The daughter ions for MBZ (m/z 263.9), MBZ-NH2 (m/z 105.1), MBZ-OH (m/z 266.0), and A620223.69 (m/z 124.1) were monitored through the third quadrupole (Q3). Calibration curves for MBZ and metabolites were computed using the area ratio peak of the analysis to the internal standard by using a quadratic equation with a 1/x weighting function over the range of 5 to 500 ng/ml (MBZ) and 1 to 500 ng/ml (metabolites) with dilutions of up to 1:100 (v:v). If one or more concentrations were below limits of quantification, a value of ½ the limit of quantification was assigned for pharmacokinetic calculations.

[4] = tested on: polyps in the intestine of APC min/+ mice; experiment: APC min/+ mouse chemoprevention study (intestinal polyps); format: in vivo
Protocol: The average number of polyps for each treatment group were graphed for the proximal, middle and distal small intestines and colon (FIG. 11A). Individual polyps were measured and categorized based on size. The average number of polyps for Sulindac versus the combiniation of MBZ+Sulindac were analyzed separately for each section of the intestine (FIG. 11B).

Row | Compound | cerebrospinal fluid (CSF)/plasma ratio [1] | B/P ratio [2] | IC50 [3] [µM] | median survival (D425 medulloblastoma) [days] | median survival (GL261-luc glioma) [days] | Ki67 proliferation marker staining (SW480; SW480 flank tumor tissue) | c-myc and Bcl-2 protein expression (SW480; SW480 flank xenograft lysates) | tumor growth and proliferation (SW480; SW480 xenograft, 50 mg/kg MBZ oral gavage four weeks) | Ki67 proliferation marker staining (HT29; HT29 flank tumor tissue) | c-myc and Bcl-2 protein expression (HT29; HT29 flank xenograft lysates) | tumor growth and proliferation (HT29; HT29 xenograft, 50 mg/kg MBZ oral gavage four weeks) | effect of ELD on average B/P ratios of MBZ (in vivo) | distribution in GL261 brain tumor vs contralateral normal brain tissue (in vivo; po, 50 mg/kg) | formation, occurrence and size of polyps [4]
1 | Cn1nnc2c(C(N)=O)ncn2c1=O [temozolomide] | 0.2 | 0.408 | – | – | – | – | – | – | – | – | – | – | – | –
2 | COC(=O)Nc1nc2ccc(C(=O)c3ccccc3)cc2[nH]1 [MBZ, Mebendazole] | – | – | 0.11 to 1 | 53 | 53 | significantly less positive | reduction of these proteins in most cases | inhibits growth and proliferation | significantly less positive | reduction of these proteins in most cases | inhibits growth and proliferation | elevated | did not differ significantly | reduces the formation of polyps
